Holding throughout (assay type): functional, organism-based
The subject of assay [1] is Deroceras reticulatum. The assay can be described thus: Molluscicidal activity against Deroceras reticulatum in Chinese cabbage at 0.8 g/m2 after 7 to 14 days by miniplot trial analysis in presence of 135 mm rainfall.
The subject of assay [2] is Arion subfuscus. Nature of the assay: Molluscicidal activity against Arion subfuscus in Chinese cabbage at 0.8 g/m2 after 21 to 28 days by miniplot trial analysis in presence of 65.8 mm rainfall.
Assay [3] relates to Arion subfuscus. Nature of the assay: Molluscicidal activity against Arion subfuscus assessed as reduction of slug number at 0.8 g/m2 after 42 days.
The subject of assay [4] is Arion subfuscus. The assay can be described thus: Molluscicidal activity against Arion subfuscus in Chinese cabbage at 0.8 g/m2 after 7 to 42 days by miniplot trial analysis in presence of 17 mm rainfall.
The subject of assay [5] is Deroceras reticulatum. The assay can be described thus: Molluscicidal activity against Deroceras reticulatum in Chinese cabbage at 0.8 g/m2 after 21 to 42 days by miniplot trial analysis in presence of 135 mm rainfall.
The test system of assay [6] is Deroceras reticulatum. The assay can be described thus: Molluscicidal activity against Deroceras reticulatum in Chinese cabbage at 0.8 g/m2 after 7 to 42 days by miniplot trial analysis in presence of 65.4 mm rainfall.
In assay [7] the test system is Deroceras reticulatum. The assay can be described thus: Molluscicidal activity against Deroceras reticulatum in Chinese cabbage at 0.8 g/m2 after 7 to 42 days by miniplot trial analysis in presence of 17 mm rainfall.
The test system of assay [8] is Arion subfuscus. Nature of the assay: Molluscicidal activity against Arion subfuscus in Chinese cabbage at 0.8 g/m2 after 7 to 42 days by miniplot trial analysis in presence of 65.4 mm rainfall.
In assay [9] the test system is Deroceras reticulatum. Nature of the assay: Molluscicidal activity against Deroceras reticulatum in Chinese cabbage at 0.8 g/m2 after 7 to 42 days.
The next assay deals with Deroceras panormitanum. Nature of the assay: Molluscicidal activity against Deroceras panormitanum assessed as reduction of slug number at 0.8 g/m2 after 42 days.
The test system of assay [10] is Arion subfuscus. Nature of the assay: Molluscicidal activity against Arion subfuscus in Chinese cabbage at 0.8 g/m2 after 21 to 42 days by miniplot trial analysis in presence of 135 mm rainfall.
The subject of assay [11] is Arion subfuscus. The assay can be described thus: Molluscicidal activity against Arion subfuscus in Chinese cabbage at 0.8 g/m2 after 7 to 14 days by miniplot trial analysis in presence of 135 mm rainfall.
Assay [12] has as its system Deroceras reticulatum. Nature of the assay: Molluscicidal activity against Deroceras reticulatum assessed as reduction of slug number at 0.8 g/m2 after 42 days.
Assay [13] has as its system Deroceras reticulatum. Nature of the assay: Molluscicidal activity against Deroceras reticulatum in Chinese cabbage at 0.8 g/m2 after 7 days by miniplot trial analysis in presence of 135 mm rainfall.
Assay [14] has as its system Arion subfuscus. The assay can be described thus: Molluscicidal activity against Arion subfuscus in Chinese cabbage at 0.8 g/m2 after 7 to 42 days.
Assay [15] deals with Arion subfuscus. The assay can be described thus: Molluscicidal activity against Arion subfuscus in Chinese cabbage at 0.8 g/m2 after 7 days by miniplot trial analysis in presence of 135 mm rainfall.
Assay [16] has as its system Deroceras reticulatum. The assay can be described thus: Molluscicidal activity against Deroceras reticulatum in Chinese cabbage at 0.8 g/m2 after 7 to 28 days by miniplot trial analysis in presence of 65.8 mm rainfall.
For assay [17], the system named is Arion subfuscus. Nature of the assay: Molluscicidal activity against Arion subfuscus in Chinese cabbage at 0.8 g/m2 after 7 to 14 days by miniplot trial analysis in presence of 65.8 mm rainfall.
The subject of assay [18] is Deroceras reticulatum. Nature of the assay: Molluscicidal activity against Deroceras reticulatum in Chinese cabbage at 5 g/m2 after 7 to 28 days by miniplot trial analysis in presence of 65.8 mm rainfall.
In assay [19] the test system is Arion subfuscus. Nature of the assay: Molluscicidal activity against Arion subfuscus in Chinese cabbage at 5 g/m2 after 21 to 28 days by miniplot trial analysis in presence of 65.8 mm rainfall.
Assay [20] has as its system Arion subfuscus. Nature of the assay: Molluscicidal activity against Arion subfuscus in Chinese cabbage at 5 g/m2 after 7 to 14 days by miniplot trial analysis in presence of 65.8 mm rainfall.
Assay [21] deals with Arion subfuscus. The assay can be described thus: Molluscicidal activity against Arion subfuscus in Chinese cabbage at 5 g/m2 after 7 to 42 days by miniplot trial analysis in presence of 17 mm rainfall.
The test system of assay [22] is Deroceras reticulatum. Nature of the assay: Molluscicidal activity against Deroceras reticulatum in Chinese cabbage at 5 g/m2 after 7 to 42 days by miniplot trial analysis in presence of 17 mm rainfall.

For two compounds, Activity results are on record in ChEMBL document CHEMBL3044863, “Optimization of biological (Phasmarhabditis hermaphrodita) and chemical (iron phosphate and metaldehyde) slug control” (Crop Prot, 2009).

The source made the active and inactive calls. No cut-off for these calls is given here.

As to `CC1OC(C)OC(C)OC(C)O1` (stereo not drawn), the result with Deroceras reticulatum [1], with Arion subfuscus [4], in the assay on Deroceras reticulatum [5], in the assay with Deroceras reticulatum [6], in the assay on Deroceras reticulatum [7] and in the assay with Arion subfuscus [8] was Active. Besides, the outcome in the assay on Deroceras reticulatum [9], in the assay on Arion subfuscus [10], with Arion subfuscus [11], with Deroceras reticulatum [13], with Arion subfuscus [14] and in the assay on Arion subfuscus [15] was Active. Further, the result in the assay with Deroceras reticulatum [16] and in the assay with Arion subfuscus [17] was Active. The outcome in the assay on Arion subfuscus [2], in the assay on Arion subfuscus [3], in the assay on Deroceras panormitanum and in the assay on Deroceras reticulatum [12] was inactive.
With IRON PHOSPHATE, the outcome with Deroceras reticulatum [18], in the assay on Arion subfuscus [20], with Arion subfuscus [21] and in the assay on Deroceras reticulatum [22] was Active. The outcome in the assay with Arion subfuscus [19] was inactive.
